Measurements as given in patent US9782346B2, “Biodegradable ocular implant” (Nanyang Technological University, priority 2010, dated 2017).

How the values were obtained:
[1] = Sustained drug release from PLC films / sandwich constructions; format: physicochemical
rabbit eyes = conditions: in vivo
Experimental: We obtained approval from the SingHealth Institute Animal Care and Use Committee (IACUC Singhealth Approval Number 2009/SHS/478) and all procedures were performed in accordance with the ARVO Statement for the Use of Animals in Ophthalmic and Vision Research. Nine New Zealand white rabbits (18 eyes) were used aged 4-6 months old with a weight range of 2-2.5 kg each. Each rabbit was anesthetized with intraperitoneal injection of ketamine hydrochloride (35-50 mg/kg) and Xylazil (5-10 mg/kg). After the animal had been adequately anaesthetized, the eye was cleaned with povidone-iodine (10%) and draped with sterile cloth. […]
Visual inspection of the operated eyes was conducted daily following surgery. […] All clinical and ocular observations were recorded on a chart. The test animals were also monitored for any gross changes such as eye discharge, squinting and, ocular discomfort. […]
Anterior segment photographs and anterior segment optical coherence tomography (AS-OCT, Visante OCT, Carl Zeiss Meditec Inc., Germany) of the implanted eyes was performed at monthly intervals. […] The site of conjunctival elevation from the microfilm was determined by the location of a light reflex over the conjunctiva during image acquisition. In cases where the light reflex was absent, the observer manually assessed the surface of the microfilm to select a radius that contained elevation. […]

CC(C)OC(=O)CCC/C=C\C[C@@H]1[C@@H](CC[C@@H](O)CCc2ccccc2)[C@H](O)C[C@@H]1O [Latanoprost]
Duration of delivery ([1]; from PLC films): 10 days

C[C@]12C=CC(=O)C=C1CC[C@@H]1[C@@H]2[C@@H](O)C[C@@]2(C)[C@H]1CC[C@]2(O)C(=O)CO [Prednisolone]
Duration of controlled release ([1]; from PLC (70/30 copolymer of PLA and PCL)): 100 days

CCCC(CCC)C(=O)O [valproic acid]
Duration of controlled release ([1]; 1% and 2% sandwich constructions (multi-layered implant)): 20 days

Poly(d,l-lactide-co-e-caprolactone) [PLC70/30]
mean increase in vascularity grade (rabbit eyes): 15±0.6% | mean percent increase in ocular score (rabbit eyes): 15±0.6%
